pEC50, pIC50: −log10 of the molar value.
Assays:
Cytochrome P450 2D6 = Cytochrome P450 2D6 (Homo sapiens, UniProt P10635); test: Inhibition of CYP2D6 in human liver microsomes incubated for 15 to 40 mins in presence of NADPH; type: ADME, Microsome
[1] = tested on: Human immunodeficiency virus 1; test: Antiviral activity against drug-resistant HIV-1 Y181C mutant infected in human MT4 cells assessed as reduction in virus-induced cytopathic effect incubated for 5 days by MTT assay; type: functional, organism-based; conditions: Human immunodeficiency virus 1, Y181C mutant, MT4, 120 h
[2] = Selectivity index, ratio of CC50 for human MT4 cells to EC50 for antiviral activity against NNRTI resistant HIV-1 infected in human MT4 cells; type: toxicity, cell-based; conditions: read-out: Ratio CC50/EC50
[3] = Fold resistance, ratio of EC50 for antiviral activity against drug-resistant HIV-1 Y188L mutant infected in human MT4 cells to EC50 for antiviral activity against […] HIV-1 infected in human MT4 cells; type: functional
[4] = Fold resistance, ratio of EC50 for antiviral activity against drug-resistant HIV-1 K103 N mutant infected in human MT4 cells to EC50 for antiviral activity against […] HIV-1 infected in human MT4 cells; type: functional
[5] = Fold resistance, ratio of EC50 for antiviral activity against drug-resistant HIV-1 E138K mutant infected in human MT4 cells to EC50 for antiviral activity against […] HIV-1 infected in human MT4 cells; type: functional
[6] = Fold resistance, ratio of EC50 for antiviral activity against drug-resistant HIV-1 L100I mutant infected in human MT4 cells to EC50 for antiviral activity against […] HIV-1 infected in human MT4 cells; type: functional
[7] = tested on: Human immunodeficiency virus 1; test: Antiviral activity against drug-resistant HIV-1 E138K mutant infected in human MT4 cells assessed as reduction in virus-induced cytopathic effect incubated for 5 days by MTT assay; type: functional, organism-based; conditions: Human immunodeficiency virus 1, E138K mutant, MT4, 120 h
[8] = Fold resistance, ratio of EC50 for antiviral activity against drug-resistant HIV-1 Y181C mutant infected in human MT4 cells to EC50 for antiviral activity against […] HIV-1 infected in human MT4 cells; type: functional
[9] = Cytotoxicity against human MT4 cells assessed as cell growth inhibition incubated for 5 days by MTT assay; type: toxicity, cell-based; conditions: time 5 day
[10] = tested on: Human immunodeficiency virus 1; test: Antiviral activity against drug-resistant HIV-1 L100I mutant infected in human MT4 cells assessed as reduction in virus-induced cytopathic effect incubated for 5 days by MTT assay; type: functional, organism-based; conditions: Human immunodeficiency virus 1, L100I mutant, MT4, 120 h
[11] = tested on: Human immunodeficiency virus 1; test: Antiviral activity against […] HIV-1 infected in human MT4 cells assessed as reduction in virus-induced cytopathic effect incubated for 5 days by MTT assay; type: functional, organism-based; conditions: Human immunodeficiency virus 1, MT4, 120 h
[12] = tested on: Human immunodeficiency virus 1; test: Antiviral activity against drug-resistant HIV-1 Y188L mutant infected in human MT4 cells assessed as reduction in virus-induced cytopathic effect incubated for 5 days by MTT assay; type: functional, organism-based; conditions: Human immunodeficiency virus 1, Y188L mutant, MT4, 120 h
[13] = tested on: Human immunodeficiency virus 1; test: Antiviral activity against drug-resistant HIV-1 K103 N mutant infected in human MT4 cells assessed as reduction in virus-induced cytopathic effect incubated for 5 days by MTT assay; type: functional, organism-based; conditions: Human immunodeficiency virus 1, K103 N mutant, MT4, 120 h
[14] = molecular target: Human immunodeficiency virus type 1 reverse transcriptase (Human immunodeficiency virus 1, UniProt Q72547); test: Inhibition of recombinant wild-type p66/p51 HIV-1 reverse transcriptase incubated for 40 mins by picogreen dye-based spectrofluorometric analysis

Chain of Cytochrome P450 2D6 (P10635 whole entry): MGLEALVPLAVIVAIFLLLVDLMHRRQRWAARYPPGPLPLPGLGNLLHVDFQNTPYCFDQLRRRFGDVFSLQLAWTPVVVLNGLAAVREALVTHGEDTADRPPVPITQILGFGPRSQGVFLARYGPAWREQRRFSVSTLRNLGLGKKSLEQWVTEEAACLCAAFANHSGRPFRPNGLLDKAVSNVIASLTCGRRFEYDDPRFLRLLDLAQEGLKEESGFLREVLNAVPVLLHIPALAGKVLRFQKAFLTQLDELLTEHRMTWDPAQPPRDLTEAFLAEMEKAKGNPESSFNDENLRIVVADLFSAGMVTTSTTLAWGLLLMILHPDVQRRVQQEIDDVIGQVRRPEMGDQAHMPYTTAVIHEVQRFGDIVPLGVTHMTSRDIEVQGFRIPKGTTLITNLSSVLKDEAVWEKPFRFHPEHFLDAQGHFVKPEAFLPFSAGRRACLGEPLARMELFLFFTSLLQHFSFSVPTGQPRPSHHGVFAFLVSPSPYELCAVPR

Row | Compound | pIC50 (Cytochrome P450 2D6) | pEC50 [1] | selectivity ratio [2] | Ratio EC50 [3] | Ratio EC50 [4] | Ratio EC50 [5] | Ratio EC50 [6] | pEC50 [7] | Ratio EC50 [8] | CC50 at 120 h [9] [µM] | pEC50 [10] | pEC50 [11] | pEC50 [12] | pEC50 [13] | pIC50 [14]
1 | COc1ccc2c(c1)[C@]13CCCC[C@@H]1[C@H](C2)N(C)CC3 [DEXTROMETHORPHAN] | 7.39 |  |  |  |  |  |  |  |  |  |  |  |  |  | 
2 | COc1cc(OC)cc(C(C#N)c2nc(SC(C)C)[nH]c(=O)c2C)c1 (centres undefined) |  | < 4.39 | 61 | >61 | >61 | 4 | 5 | 5.60 | >61 | 41.1 | 5.47 | 6.17 | < 4.39 | < 4.39 | 5.59
3 | Cc1c(C(C#N)c2ccc(F)c(C#N)c2)nc(SC(C)C)[nH]c1=O (centres undefined) |  | < 3.78 | 8 | >8 | >8 | 2 | 3 | 4.38 | >8 | 164 | 4.24 | 4.67 | < 3.78 | < 3.78 | 4.08
4 | Cc1c(C(C#N)c2cccc(C(F)(F)F)c2)nc(SC(C)C)[nH]c1=O (centres undefined) |  | 5.00 | 65 | >65 | >57 | 3 | 11 | 5.57 | 9 | 69.2 | 4.92 | 5.97 | < 4.16 | < 4.22 | 5.57
5 | Cc1c(C(C#N)c2ccccc2)nc(SC(C)C)[nH]c1=O (centres undefined) |  | 5.04 | 547 | >550 | 185 | 2 | 28 | 6.06 | 25 | 204 | 4.99 | 6.43 | < 3.69 | 4.17 | 5.82
6 | Cc1c(C(C#N)c2ccccc2Cl)nc(SC(C)C)[nH]c1=O (centres undefined) |  | 5.46 | 1320 | 807 | 146 | 1 | 26 | 7.10 | 51 | 89.2 | 5.75 | 7.17 | 4.26 | 5.00 | 7.10
7 | Cc1c(C(C#N)c2cccnc2)nc(SC(C)C)[nH]c1=O (centres undefined) |  | < 3.44 | 14 | >14 | >14 | 2 | 2 | 4.27 | >14 | 363 | 4.32 | 4.58 | < 3.44 | < 3.44 | 3.50
8 | Cc1c(C(C#N)c2cc(F)cc(Cl)c2)nc(SC(C)C)[nH]c1=O (centres undefined) |  | 4.90 | 363 | >365 | 124 | 5 | 50 | 5.70 | 33 | 139 | 4.72 | 6.42 | < 3.86 | 4.33 | 6.15
9 | Cc1c(C(C#N)c2cc(Cl)cc(C(F)(F)F)c2)nc(SC(C)C)[nH]c1=O (centres undefined) |  | < 4.64 | 6 | >6 | >6 | 3 | >6 | 4.96 | >6 | 23.1 | < 4.64 | 5.38 | < 4.64 | < 4.64 | 5.45
10 | Cc1c(C(C#N)c2cccc(Br)c2)nc(SC(C)C)[nH]c1=O (centres undefined) |  | 5.19 | 443 | >445 | >170 | 3 | 26 | 6.15 | 23 | 125 | 5.13 | 6.55 | < 3.90 | 4.32 | 6.24
11 | Cc1c(C(C#N)c2c(Cl)cccc2Cl)nc(SC(C)C)[nH]c1=O (centres undefined) |  | 5.40 | 749 | >750 | >74 | 3 | 41 | 6.66 | 48 | 62.2 | 5.47 | 7.08 | < 4.21 | 5.21 | 6.33
12 | Cc1c(C(C#N)c2ccccn2)nc(SC(C)C)[nH]c1=O (centres undefined) |  | 4.29 | 207 | >207 | >207 | 3 | 31 | 5.42 | 35 | 304 | 4.34 | 5.83 | < 3.52 | < 3.52 | 5.03
13 | Cc1c(C(C#N)c2ccc(Br)cc2)nc(SC(C)C)[nH]c1=O (centres undefined) |  | < 4.33 | 71 | >70 | >70 | >2 | >15 | 5.90 | >70 | 47.1 | < 4.99 | 6.17 | < 4.33 | < 4.33 | 5.75

Reference: ChEMBL document CHEMBL5137044, “Expansion of the S-CN-DABO scaffold to exploit the impact on inhibitory activities against the non-nucleoside HIV-1 reverse transcriptase” (Eur J Med Chem, 2022)
